Laboratory results taken from ChEMBL document CHEMBL4507319 (2021).

Legend:
[1] = target: T1, Bone morphogenetic protein receptor type-2 (Homo sapiens) (UniProt Q13873); assay: BMPR2(h) Eurofins kinase panel; conditions: Compound concentration 1.0 uM
T1 sequence (whole entry): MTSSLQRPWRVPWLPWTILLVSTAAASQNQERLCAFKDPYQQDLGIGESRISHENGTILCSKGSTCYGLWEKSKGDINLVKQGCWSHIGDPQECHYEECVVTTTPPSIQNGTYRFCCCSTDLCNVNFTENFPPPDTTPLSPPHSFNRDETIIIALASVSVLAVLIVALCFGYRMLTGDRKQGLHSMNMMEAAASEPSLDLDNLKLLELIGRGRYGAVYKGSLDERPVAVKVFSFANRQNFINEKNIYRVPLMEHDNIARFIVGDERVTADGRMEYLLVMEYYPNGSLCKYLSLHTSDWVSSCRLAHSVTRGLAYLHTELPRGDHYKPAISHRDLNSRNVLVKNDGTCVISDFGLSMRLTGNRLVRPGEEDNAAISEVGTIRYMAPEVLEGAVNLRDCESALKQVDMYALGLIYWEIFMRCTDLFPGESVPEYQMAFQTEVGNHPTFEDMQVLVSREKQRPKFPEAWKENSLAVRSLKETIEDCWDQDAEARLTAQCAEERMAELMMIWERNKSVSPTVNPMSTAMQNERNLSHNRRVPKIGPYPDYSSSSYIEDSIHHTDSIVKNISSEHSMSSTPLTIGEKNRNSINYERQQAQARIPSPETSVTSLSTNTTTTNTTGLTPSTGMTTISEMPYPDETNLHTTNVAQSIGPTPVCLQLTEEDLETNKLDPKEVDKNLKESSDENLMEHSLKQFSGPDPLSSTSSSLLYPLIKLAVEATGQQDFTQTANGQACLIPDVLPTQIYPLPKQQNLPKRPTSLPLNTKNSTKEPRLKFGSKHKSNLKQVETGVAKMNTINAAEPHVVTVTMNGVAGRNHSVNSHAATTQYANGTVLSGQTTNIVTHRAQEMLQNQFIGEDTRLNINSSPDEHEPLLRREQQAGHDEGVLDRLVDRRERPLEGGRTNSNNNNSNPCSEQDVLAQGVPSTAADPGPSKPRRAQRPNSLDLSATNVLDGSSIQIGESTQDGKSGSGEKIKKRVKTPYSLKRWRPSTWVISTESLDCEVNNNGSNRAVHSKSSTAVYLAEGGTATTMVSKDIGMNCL

[2] = target: T2, Testis-specific serine/threonine-protein kinase 1 (Homo sapiens) (UniProt Q9BXA7); assay: TSSK1(h) Eurofins kinase panel; conditions: Compound concentration 1.0 uM
T2 sequence (whole entry): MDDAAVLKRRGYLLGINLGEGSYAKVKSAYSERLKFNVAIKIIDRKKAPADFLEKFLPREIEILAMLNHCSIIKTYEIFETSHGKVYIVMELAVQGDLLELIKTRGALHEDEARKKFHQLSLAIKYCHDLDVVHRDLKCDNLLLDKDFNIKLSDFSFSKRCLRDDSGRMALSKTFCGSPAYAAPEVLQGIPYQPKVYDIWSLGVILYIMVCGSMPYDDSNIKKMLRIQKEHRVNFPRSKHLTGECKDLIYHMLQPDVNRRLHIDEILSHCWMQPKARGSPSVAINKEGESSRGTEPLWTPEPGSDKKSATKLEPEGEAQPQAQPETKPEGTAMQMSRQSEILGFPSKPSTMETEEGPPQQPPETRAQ

[3] = target: Cyclin-dependent kinase 5/CDK5 activator 1 (Homo sapiens) (UniProt Q00535+Q15078); assay: CDK5/p35(h) Eurofins kinase panel; type: protein-complex assay; conditions: Compound concentration 1.0 uM
Aurora kinase A = Aurora kinase A (Homo sapiens, UniProt O14965); assay: Aurora-A(h) Eurofins kinase panel
[4] = target: Serine/threonine-protein kinase PLK1 (Homo sapiens) (UniProt P53350); assay: Plk1(h) Eurofins kinase panel; conditions: Compound concentration 1.0 uM
[5] = target: mTOR/FKBP12A/FKBP12B (Homo sapiens) (UniProt P62942+P68106+P42345); assay: mTOR/FKBP12(h) Eurofins kinase panel; type: protein-complex assay; conditions: Compound concentration 1.0 uM
Rec1 = assay: REC-1 cell line Proliferation assay; type: functional, Homo sapiens; conditions: time 3 day
[6] = target: Protein kinase C alpha type (Homo sapiens) (UniProt P17252); assay: PKCalpha (h) Eurofins kinase panel; conditions: Compound concentration 1.0 uM
[7] = target: T3, Serine/threonine-protein kinase Nek3 (Homo sapiens) (UniProt P51956); assay: NEK3(h) Eurofins kinase panel; conditions: Compound concentration 1.0 uM
T3 sequence (whole entry): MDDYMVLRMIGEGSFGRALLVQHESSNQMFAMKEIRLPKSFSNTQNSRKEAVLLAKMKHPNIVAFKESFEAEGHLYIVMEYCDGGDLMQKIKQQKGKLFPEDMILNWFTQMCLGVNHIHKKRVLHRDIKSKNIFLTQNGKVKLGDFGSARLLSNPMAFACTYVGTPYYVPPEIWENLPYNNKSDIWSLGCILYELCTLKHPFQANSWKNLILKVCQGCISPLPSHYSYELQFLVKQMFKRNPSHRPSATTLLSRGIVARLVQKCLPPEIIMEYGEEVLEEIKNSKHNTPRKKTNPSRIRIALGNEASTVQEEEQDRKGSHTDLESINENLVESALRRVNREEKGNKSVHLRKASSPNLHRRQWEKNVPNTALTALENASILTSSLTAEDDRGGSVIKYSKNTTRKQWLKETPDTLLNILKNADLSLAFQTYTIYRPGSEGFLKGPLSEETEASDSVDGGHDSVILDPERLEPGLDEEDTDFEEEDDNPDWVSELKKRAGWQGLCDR

[8] = target: Platelet-derived growth factor receptor beta (Homo sapiens) (UniProt P09619); assay: PDGFRbeta(h) Eurofins kinase panel; conditions: Compound concentration 1.0 uM
[9] = target: T4, Dual specificity mitogen-activated protein kinase kinase 6 (Homo sapiens) (UniProt P52564); assay: MKK6(h) Eurofins kinase panel; conditions: Compound concentration 1.0 uM
T4 sequence (whole entry): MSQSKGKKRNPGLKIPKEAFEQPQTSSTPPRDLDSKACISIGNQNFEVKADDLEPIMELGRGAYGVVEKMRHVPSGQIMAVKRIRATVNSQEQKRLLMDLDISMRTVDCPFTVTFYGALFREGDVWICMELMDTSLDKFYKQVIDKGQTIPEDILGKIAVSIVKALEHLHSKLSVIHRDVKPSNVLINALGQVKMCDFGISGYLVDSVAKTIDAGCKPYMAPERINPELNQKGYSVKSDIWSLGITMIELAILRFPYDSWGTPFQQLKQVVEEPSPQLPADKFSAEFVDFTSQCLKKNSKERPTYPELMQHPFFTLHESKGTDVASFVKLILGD

[10] = target: Tyrosine-protein kinase Fer (Homo sapiens) (UniProt P16591); assay: Fer(h) Eurofins kinase panel; conditions: Compound concentration 1.0 uM
Sequence of Tyrosine-protein kinase Fer (Homo sapiens) (P16591 whole entry, looked up): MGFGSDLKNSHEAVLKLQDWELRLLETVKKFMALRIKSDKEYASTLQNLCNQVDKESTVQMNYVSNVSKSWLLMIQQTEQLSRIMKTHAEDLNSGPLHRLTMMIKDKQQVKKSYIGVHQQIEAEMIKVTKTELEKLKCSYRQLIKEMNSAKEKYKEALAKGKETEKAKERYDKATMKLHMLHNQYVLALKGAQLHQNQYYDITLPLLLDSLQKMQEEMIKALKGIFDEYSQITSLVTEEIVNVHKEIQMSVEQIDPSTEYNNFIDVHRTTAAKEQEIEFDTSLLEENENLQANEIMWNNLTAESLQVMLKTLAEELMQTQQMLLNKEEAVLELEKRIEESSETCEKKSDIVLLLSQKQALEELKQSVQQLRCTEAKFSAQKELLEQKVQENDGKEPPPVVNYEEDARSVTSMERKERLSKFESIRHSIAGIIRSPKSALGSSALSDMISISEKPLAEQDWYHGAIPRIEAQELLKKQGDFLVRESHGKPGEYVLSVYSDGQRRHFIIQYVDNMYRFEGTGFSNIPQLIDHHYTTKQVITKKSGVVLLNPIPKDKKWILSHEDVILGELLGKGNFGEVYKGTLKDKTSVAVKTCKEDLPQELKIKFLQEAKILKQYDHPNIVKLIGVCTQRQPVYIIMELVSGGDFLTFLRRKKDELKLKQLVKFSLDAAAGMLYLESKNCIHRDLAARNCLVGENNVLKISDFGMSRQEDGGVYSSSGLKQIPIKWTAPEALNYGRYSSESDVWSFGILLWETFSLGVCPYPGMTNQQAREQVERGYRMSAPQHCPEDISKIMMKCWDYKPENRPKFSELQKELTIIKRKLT

Sequence of Platelet-derived growth factor receptor beta (Homo sapiens) (P09619 whole entry): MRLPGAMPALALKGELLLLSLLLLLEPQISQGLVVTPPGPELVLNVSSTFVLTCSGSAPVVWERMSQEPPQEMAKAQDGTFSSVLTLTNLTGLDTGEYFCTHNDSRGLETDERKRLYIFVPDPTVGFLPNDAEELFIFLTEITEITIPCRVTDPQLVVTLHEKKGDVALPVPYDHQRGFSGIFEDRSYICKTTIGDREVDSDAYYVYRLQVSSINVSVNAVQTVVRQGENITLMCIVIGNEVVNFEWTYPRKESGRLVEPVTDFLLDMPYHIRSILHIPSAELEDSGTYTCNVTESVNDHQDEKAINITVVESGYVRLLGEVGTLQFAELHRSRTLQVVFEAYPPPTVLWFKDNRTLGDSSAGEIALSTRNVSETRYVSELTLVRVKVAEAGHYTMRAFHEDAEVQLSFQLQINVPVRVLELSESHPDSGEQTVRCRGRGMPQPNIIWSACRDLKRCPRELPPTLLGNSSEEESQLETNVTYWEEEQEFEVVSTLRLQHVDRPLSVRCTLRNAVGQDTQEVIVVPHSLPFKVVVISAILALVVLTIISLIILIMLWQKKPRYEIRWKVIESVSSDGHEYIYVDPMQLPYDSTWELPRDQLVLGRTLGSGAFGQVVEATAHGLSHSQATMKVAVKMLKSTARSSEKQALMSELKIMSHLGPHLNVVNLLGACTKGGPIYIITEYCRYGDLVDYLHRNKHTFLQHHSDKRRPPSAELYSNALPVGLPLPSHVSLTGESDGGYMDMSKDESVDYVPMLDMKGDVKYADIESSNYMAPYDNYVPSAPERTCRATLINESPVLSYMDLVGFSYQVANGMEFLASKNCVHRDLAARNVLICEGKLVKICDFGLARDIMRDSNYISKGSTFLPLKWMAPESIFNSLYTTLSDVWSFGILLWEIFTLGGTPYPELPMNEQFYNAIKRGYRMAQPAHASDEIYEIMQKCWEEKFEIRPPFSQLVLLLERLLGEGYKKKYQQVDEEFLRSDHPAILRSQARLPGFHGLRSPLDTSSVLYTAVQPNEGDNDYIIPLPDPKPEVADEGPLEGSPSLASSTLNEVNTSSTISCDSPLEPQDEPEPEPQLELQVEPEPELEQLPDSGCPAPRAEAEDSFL
Sequence of Cyclin-dependent kinase 5/CDK5 activator 1 (Homo sapiens) (Q00535 whole entry): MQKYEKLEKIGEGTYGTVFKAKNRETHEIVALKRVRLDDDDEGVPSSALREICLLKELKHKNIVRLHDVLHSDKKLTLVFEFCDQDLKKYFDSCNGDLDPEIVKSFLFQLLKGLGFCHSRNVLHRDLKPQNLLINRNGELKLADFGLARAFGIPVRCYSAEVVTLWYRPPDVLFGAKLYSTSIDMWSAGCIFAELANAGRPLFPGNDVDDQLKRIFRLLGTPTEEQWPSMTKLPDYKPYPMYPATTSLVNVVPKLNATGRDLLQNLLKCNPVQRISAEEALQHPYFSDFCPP
Sequence of Cyclin-dependent kinase 5/CDK5 activator 1 (Homo sapiens) (Q15078 99-307 partner limits assumed): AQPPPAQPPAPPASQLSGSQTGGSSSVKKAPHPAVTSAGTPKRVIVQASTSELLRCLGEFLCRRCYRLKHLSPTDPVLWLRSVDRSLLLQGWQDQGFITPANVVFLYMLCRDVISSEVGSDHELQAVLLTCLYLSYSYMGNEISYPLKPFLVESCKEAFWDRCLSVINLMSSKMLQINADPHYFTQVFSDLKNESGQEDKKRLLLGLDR
Sequence of Aurora kinase A (O14965 whole entry): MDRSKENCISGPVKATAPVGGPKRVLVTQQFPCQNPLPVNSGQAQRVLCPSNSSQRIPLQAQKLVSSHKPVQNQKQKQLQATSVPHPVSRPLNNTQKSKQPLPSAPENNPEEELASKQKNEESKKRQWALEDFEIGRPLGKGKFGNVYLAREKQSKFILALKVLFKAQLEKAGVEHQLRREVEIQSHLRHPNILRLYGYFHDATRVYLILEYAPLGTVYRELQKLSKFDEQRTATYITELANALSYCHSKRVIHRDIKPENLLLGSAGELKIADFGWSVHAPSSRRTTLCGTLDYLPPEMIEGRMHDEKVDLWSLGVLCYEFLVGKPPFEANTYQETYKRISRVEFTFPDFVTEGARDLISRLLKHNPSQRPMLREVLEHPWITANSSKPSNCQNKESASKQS
Sequence of mTOR/FKBP12A/FKBP12B (Homo sapiens) (P62942 2-108 limits assumed, other chains not shown): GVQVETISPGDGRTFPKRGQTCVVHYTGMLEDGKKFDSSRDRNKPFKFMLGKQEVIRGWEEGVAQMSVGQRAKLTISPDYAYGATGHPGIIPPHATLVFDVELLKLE
Sequence of mTOR/FKBP12A/FKBP12B (Homo sapiens) (P68106 whole entry partner, other chains not shown): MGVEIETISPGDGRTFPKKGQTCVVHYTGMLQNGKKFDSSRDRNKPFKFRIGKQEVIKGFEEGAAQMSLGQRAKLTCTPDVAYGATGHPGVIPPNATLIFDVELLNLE
Sequence of Serine/threonine-protein kinase PLK1 (Homo sapiens) (P53350 whole entry): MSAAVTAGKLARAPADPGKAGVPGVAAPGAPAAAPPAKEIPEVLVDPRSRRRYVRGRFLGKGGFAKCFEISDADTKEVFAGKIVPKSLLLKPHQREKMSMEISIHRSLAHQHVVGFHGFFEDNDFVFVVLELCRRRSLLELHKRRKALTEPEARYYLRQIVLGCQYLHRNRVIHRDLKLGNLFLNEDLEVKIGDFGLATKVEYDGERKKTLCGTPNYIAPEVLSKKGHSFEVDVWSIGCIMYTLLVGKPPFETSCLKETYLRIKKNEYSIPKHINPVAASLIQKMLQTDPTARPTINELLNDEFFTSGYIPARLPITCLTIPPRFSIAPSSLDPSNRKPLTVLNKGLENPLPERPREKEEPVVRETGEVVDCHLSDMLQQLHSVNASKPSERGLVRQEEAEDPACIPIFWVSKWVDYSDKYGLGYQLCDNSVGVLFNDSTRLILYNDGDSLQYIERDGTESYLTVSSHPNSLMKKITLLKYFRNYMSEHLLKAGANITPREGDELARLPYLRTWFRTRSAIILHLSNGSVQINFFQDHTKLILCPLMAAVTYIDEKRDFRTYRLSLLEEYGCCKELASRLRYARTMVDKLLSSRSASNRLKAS

CCc1ccccc1C(=O)Nc1n[nH]c2c(C)c(F)c(C3C(C#N)=C(C)N(C)C(C)=C3C#N)cc12 [BAY-3827]
% residual kinase activity [1]: 104% | % residual kinase activity [2]: 84% | % residual kinase activity [3]: 99% | IC50 (Aurora kinase A): 480 nM | % residual kinase activity [4]: 102% | % residual kinase activity [5]: 98% | Cell Proliferation IC50 (Rec1): 3300 nM | % residual kinase activity [6]: 44% | % residual kinase activity [7]: 102% | % residual kinase activity [8]: 108% | % residual kinase activity [9]: 94% | % residual kinase activity [10]: 100%
